Target: T1, purified UGPase/PGMase protein (Cyclotella cryptica, UniProt A0ABD3PLY7)
T1 construct: both domains act
Type: biochemical
Conditions: determined via double reciprocal plots; glucose-6-phosphate versus glucose-1-phosphate as substrate
Procedure: P-4252) were added to each reaction and incubated for one hour at 30° C. The reaction mixtures were spotted onto separate 2.5 cm DE81 filter disks (Whatman Inc.; Fairfield, N.J.), which were then washed in five consecutive batches of water (200 mL each). The radioactivity of each filter was determined by liquid scintillation counting.

T1 sequence (A0ABD3PLY7 entry or part of it R291K): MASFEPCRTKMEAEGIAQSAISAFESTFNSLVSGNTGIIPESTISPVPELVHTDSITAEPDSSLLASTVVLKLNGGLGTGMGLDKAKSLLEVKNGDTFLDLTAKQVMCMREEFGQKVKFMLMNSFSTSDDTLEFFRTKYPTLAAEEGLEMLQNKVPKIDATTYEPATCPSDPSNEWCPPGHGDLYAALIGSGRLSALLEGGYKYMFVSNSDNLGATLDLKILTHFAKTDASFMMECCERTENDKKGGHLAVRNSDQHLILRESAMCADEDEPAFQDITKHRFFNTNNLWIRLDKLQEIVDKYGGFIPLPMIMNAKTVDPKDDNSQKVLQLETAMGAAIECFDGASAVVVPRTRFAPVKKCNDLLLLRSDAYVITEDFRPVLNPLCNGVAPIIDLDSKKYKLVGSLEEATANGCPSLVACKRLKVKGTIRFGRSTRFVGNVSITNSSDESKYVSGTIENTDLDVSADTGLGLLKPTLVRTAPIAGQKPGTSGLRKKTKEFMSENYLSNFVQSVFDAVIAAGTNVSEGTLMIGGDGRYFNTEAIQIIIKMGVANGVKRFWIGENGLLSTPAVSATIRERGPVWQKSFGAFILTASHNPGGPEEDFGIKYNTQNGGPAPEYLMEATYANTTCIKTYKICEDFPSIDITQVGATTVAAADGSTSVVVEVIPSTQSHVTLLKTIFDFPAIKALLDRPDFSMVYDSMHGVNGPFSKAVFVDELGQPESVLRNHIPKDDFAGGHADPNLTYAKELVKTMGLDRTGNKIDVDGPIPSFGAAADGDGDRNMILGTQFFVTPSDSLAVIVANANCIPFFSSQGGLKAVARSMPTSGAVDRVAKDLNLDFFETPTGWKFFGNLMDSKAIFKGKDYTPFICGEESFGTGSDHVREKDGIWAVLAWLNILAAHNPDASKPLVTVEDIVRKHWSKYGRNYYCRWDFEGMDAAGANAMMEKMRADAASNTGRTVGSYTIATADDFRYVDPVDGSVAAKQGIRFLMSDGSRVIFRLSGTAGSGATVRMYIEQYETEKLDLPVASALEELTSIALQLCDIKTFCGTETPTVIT

O=P(O)(O)OC[C@H]1OC(O)[C@H](O)[C@@H](O)[C@@H]1O (stereo partly shown) [glucose-6-phosphate]
maximum velocity of UDP-glucose formation, fold less than for glucose-1-phosphate: 13 fold

From patent US5928932A, “Isolated gene encoding an enzyme with UDP-glucose pyrophosphorylase and phosphoglucomutase activities from Cyclotella cryptica” (priority 1996, dated 1999)
